Results from patent US20240009651A1, “PRE-COATINGS FOR BIOCOMPATIBLE SOLID PHASE MICROEXTRACTION DEVICES” (SIGMA-ALDRICH CO. LLC, priority 2020, published 2024).

Experiments:
in vitro = settings: human
Protocol: (§1) Protein Binding by BioSPME was studied. A 96-pin device was prepared with an […] pre-coating and PAN/C18 BioSPME coating. Human plasma and buffer were spiked at a therapeutically relevant concentration and incubated for one hour at 37° C. while shaking at 300 rpm. After the incubation, 200 μL plasma and buffer were loaded into separate columns on to the extraction well plate (n=8). The determination of the protein binding was determined by automated robotic method using the BioSPME C18 96-pin tool. Briefly, the pin tool is conditioned for twenty minutes static in isopropanol, then it is transferred into a new well plate for 10 seconds in water (wash step). This is followed by the extraction step. The pin tool is transferred into the preloaded extraction plate described earlier. Here, the pin tool extracts the analytes while shaking at 1200-1250 rpm at 37° C. for 15 minutes. The pin tools return to the water solution for a 60 seconds wash and finally transferred into a desorption plate. The desorption solution is a 80:20 methanol:water and desorbs for 20 minutes under static conditions. Samples were analyzed using methods described in Tables 5 and 6.
(§2) The extraction plates used in this study included both plastic and glass-coated plates. The choice of the plate depended on the compound properties and how well the compound behaved in buffer solution.
(§3) Determination of % Free Fraction (Fu) by BioSPME
(§4) BioSPME method determines the free concentration of analyte in plasma by comparing it with the extraction of the analyte from buffer samples where 100% of the analyte is considered to be free of protein biding.
(§5) The percent free or percent unbound is determined in Eq. 1:
(§6) where concentration free represents the unbound concentration of the analyte in the matrix in this case plasma, and concentration total represents the total concentration of analyte. The amount extracted is independent of units and can be applied using preferred quantities (e.g. nanograms or moles) Mfree, and extraction volume of plasma, Vplasma. The concentration of analyte in the desorption solution is quantified by an external calibration curve, and if the desorption volume is equal to the plasma and buffer extraction volumes, the concentration from desorption will be equal to the extracted concentration as shown in Eq 2.
(§7) The bound fraction, FB, can be determined from the extracted concentrations as shown in Eq 6.
(§8) In cases where depletion of compounds from plasma was pronounced upon BioSPME extraction (extraction exceeded 5% of total spiked analyte), a correction to the calculated Bound Fraction was required as described below:
(§9) where B and P, represent the respective amounts extracted from buffer, B, and plasma, P. B^0 represents the concentration the samples were spiked originally.

Human plasma = test: in vitro
Protocol: as §1, §2, §3, §4, §5, §6, §7, §8, §9

[1] = cited from earlier work; for Physiological Charge: physiological pH
[2] = Non-specific binding to plastic extraction plates; assay type: in vitro ADME; settings: plastic versus glass-coated 96-well extraction plates, buffer solution
Source text: as §2

[3] = human plasma, spiked 100 ng/mL, 200 μL sample, 37° C., n = 8

| Structure (SMILES) | fraction unbound at 1 h, 100 ng/mL (in vitro; plasma) | Ave. Buffer Extracted (Human plasma; 15 min, 100 ng/mL) [ng/mL] | Ave. Plasma Extracted (Human plasma; human, 15 min, 100 ng/mL) [ng/mL] | Ave. FB(%) (bound fraction) (Human plasma; human, 1 h, 100 ng/mL) | Physiological Charge [1] | further results |
| --- | --- | --- | --- | --- | --- | --- |
| CC(C)NCC(O)COc1cccc2ccccc12 (centres unmarked) [Propranolol] | 0.095 | 18.3 | 1.7 | 90.5 | 1 |  |
| NC(=O)N1c2ccccc2C=Cc2ccccc21 [Carbamazepine] | 0.236 | 34.7 | 8.2 | 76.4 | 0 |  |
| C[C@]12C=CC(=O)C=C1CC[C@@H]1[C@@H]2[C@@H](O)C[C@@]2(C)[C@H]1CC[C@]2(O)C(=O)CO [prednisolone] | 0.218 | 62.1 | 13.5 | 78.2 | 0 |  |
| CN(C)CCCN1c2ccccc2CCc2ccccc21 [Imipramine] |  | 65.4 | 12.2 |  | 1 | fraction unbound at 1 h, 100 ng/mL (in vitro; human plasma): 0.074; Ave. FB(%) (bound fraction) (Human plasma; [3]): 92.6%; non-specific binding to plastic [2]: exhibit non-specific biding to plastic |
| CC(=O)N1CCN(c2ccc(OCC3COC(Cn4ccnc4)(c4ccc(Cl)cc4Cl)O3)cc2)CC1 (centres unmarked) [Ketoconazole] |  |  |  |  | 0 | fraction unbound at 1 h, 500 ng/mL (in vitro; human plasma): 0.032; Ave. Buffer Extracted (Human plasma; 15 min, 500 ng/mL): 282.4 ng/mL; Ave. FB(%) (bound fraction) (Human plasma; human plasma, spiked 500 ng/mL, 200 μL sample, 37° C., n = 8): 96.8%; Ave. Plasma Extracted (Human plasma; human, 15 min, 500 ng/mL): 20.0 ng/mL; non-specific binding to plastic [2]: exhibit non-specific biding to plastic; pKa [1]: 6.75 |
| CC(=O)CC(c1ccccc1)c1c(O)c2ccccc2oc1=O (centres unmarked) [Warfarin] |  |  |  |  |  | fraction unbound at 1 h, 2500 ng/mL (in vitro; plasma): 0.002; Ave. Buffer Extracted (Human plasma; 15 min, 2500 ng/mL): 10.0 ng/mL; Ave. Plasma Extracted (Human plasma; human, 15 min, 2500 ng/mL): <0.1 ng/mL; Ave. FB(%) (bound fraction) (Human plasma; human, 1 h, 2500 ng/mL): 99.8% |
| Cc1ccc(-c2nc3ccc(C)cn3c2CC(=O)N(C)C)cc1 [Zolpidem] | 0.031 |  |  |  | 0 | Ave. Buffer Extracted (Human plasma; buffer, spiked 100 ng/mL, 200 μL sample, n = 8): 68.4 ng/mL; Ave. FB(%) (bound fraction) (Human plasma; [3]): 96.9%; Ave. Plasma Extracted (Human plasma; human plasma, spiked 100 ng/mL, 200 μL sample, n = 8): 2.1 ng/mL |
| CC[C@H]1OC(=O)[C@H](C)[C@@H](O[C@H]2C[C@@](C)(OC)[C@@H](O)[C@H](C)O2)[C@H](C)[C@@H](O[C@@H]2O[C@H](C)C[C@H](N(C)C)[C@H]2O)[C@](C)(O)C[C@@H](C)C(=O)[C@H](C)[C@@H](O)[C@]1(C)O [Erythromycin] | 0.182 | 35.0 | 6.5 | 81.8 |  |  |
| O=C1CC2(CCCC2)CC(=O)N1CCCCN1CCN(c2ncccn2)CC1 [Buspirone] |  |  |  |  |  | pKa [1]: 4.12 |
| CCn1cc(C(=O)O)c(=O)c2ccc(C)nc21 [Nalidixic Acid] |  |  |  |  |  | fraction unbound at 1 h, 2000 ng/mL (in vitro; plasma): 0.03; Ave. Buffer Extracted (Human plasma; 15 min, 2000 ng/mL): 16.35 ng/mL; Ave. Plasma Extracted (Human plasma; human, 15 min, 2000 ng/mL): 0.5 ng/mL; Ave. FB(%) (bound fraction) (Human plasma; human, 1 h, 2000 ng/mL): 97.0%; Log P [1]: 1.59 |
